Experimental data taken from US20220306647A1, “NOVEL INDOLE-2-CARBOXAMIDES ACTIVE AGAINST THE HEPATITUS B VIRUS (HBV)” (AICURIS GMBH & CO. KG, priority 2019, published 2022).

Target: T1, HBV core protein (C-terminal truncated core protein, 149 amino acids of the N-terminal assembly domain, BODIPY-FL labelled) (UniProt P03146)
T1 construct: fused on or other part: A single cysteine added after residue 149, at position 150; It carries the BODIPY-FL maleimide label
Assay: Biochemical capsid assembly assay (fluorescence quenching)
Settings: assembly started with NaCl, fluorescence read after 6 min, read-out: Assembly activity
Experimental: The screening for assembly effector activity was done based on a fluorescence quenching assay published by Zlotnick et al. (2007). The C-terminal truncated core protein containing 149 amino acids of the N-terminal assembly domain fused to a unique cysteine residue at position 150 and was expressed in E. coli using the pET expression system (Merck Chemicals, Darmstadt). Purification of core dimer protein was performed using a sequence of size exclusion chromatography steps. In brief, the cell pellet from 1 L BL21 (DE3) Rosetta2 culture expressing the coding sequence of core protein cloned NdeI/XhoI into expression plasmid pET21b was treated for 1 h on ice with a native lysis buffer (Qproteome Bacterial Protein Prep Kit; Qiagen, Hilden). After a centrifugation step the supernatant was precipitated during 2 h stirring on ice with 0.23 g/ml of solid ammonium sulfate. Following further centrifugation the resulting pellet was resolved in buffer A (100 mM Tris, pH 7.5; 100 mM NaCl; 2 mM DTT) and was subsequently loaded onto a buffer A equilibrated CaptoCore 700 column (GE HealthCare, Frankfurt). The column flow through containing the assembled HBV capsid was dialyzed against buffer N (50 mM NaHCO3 pH 9.6; 5 mM DTT) before urea was added to a final concentration of 3M to dissociate the capsid into core dimers for 1.5 h on ice. The protein solution was then loaded onto a 1L Sephacryl S300 column. After elution with buffer N core dimer containing fractions were identified by SDS-PAGE and subsequently pooled and dialyzed against 50 mM HEPES pH 7.5; 5 mM DTT. To improve the assembly capacity of the purified core dimers a second round of assembly and disassembly starting with the addition of 5 M NaCl and including the size exclusion chromatography steps described above was performed. From the last chromatography step core dimer containing fractions were pooled and stored in aliquots at concentrations between 1.5 to 2.0 mg/ml at −80° C.
Immediately before labelling the core protein was reduced by adding freshly prepared DTT in a final concentration of 20 mM. After 40 min incubation on ice storage buffer and DTT was removed using a Sephadex G-25 column (GE HealthCare, Frankfurt) and 50 mM HEPES, pH 7.5. For labelling 1.6 mg/ml core protein was incubated at 4° C. and darkness overnight with BODIPY-FL maleimide (Invitrogen, Karlsruhe) in a final concentration of 1 mM. After labelling the free dye was removed by an additional desalting step using a Sephadex G-25 column. Labelled core dimers were stored in aliquots at 4° C. In the dimeric state the fluorescence signal of the labelled core protein is high and is quenched during the assembly of the core dimers to high molecular capsid structures. The screening assay was performed in black 384 well microtiter plates in a total assay volume of 10 μl using 50 mM HEPES pH 7.5 and 1.0 to 2.0 μM labelled core protein. Each screening compound was added in 8 different concentrations using a 0.5 log-unit serial dilution starting at a final concentration of 100 μM, 31.6 μM or 10 μM, In any case the DMSO concentration over the entire microtiter plate was 0.5%. The assembly reaction was started by the injection of NaCl to a final concentration of […] which induces the assembly process to approximately 25% of the maximal quenched signal. 6 min after starting the reaction the fluorescence signal was measured using a Clariostar plate reader (BMG Labtech, Ortenberg) with an excitation of 477 nm and an emission of 525 nm. As 100% and 0% assembly control HEPES buffer containing 2.5 M and 0 M NaCl was used. Experiments were performed thrice in triplicates. EC50 values were calculated by non-linear regression analysis using the Graph Pad Prism 6 software (GraphPad Software, La Jolla, USA).

T1 sequence (P03146 whole entry, the tested form may be a part): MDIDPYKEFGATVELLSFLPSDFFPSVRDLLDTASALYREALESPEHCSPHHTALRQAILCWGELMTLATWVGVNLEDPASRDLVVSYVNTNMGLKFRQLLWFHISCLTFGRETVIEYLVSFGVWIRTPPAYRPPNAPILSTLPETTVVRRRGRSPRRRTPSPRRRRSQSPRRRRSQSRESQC

Compound	IC50 [µM]
O=C(O)c1ccc(C2(NC(=O)c3cnn4c3CN(C(=O)c3cc5ccccc5[nH]3)CC4)CC2)nc1 [Example 19, 6-{1-[5-(1H-indole-2-carbonyl)-4H,5H,6H,7H-pyrazolo[1,5-a]pyrazine-3-amido]cyclopropyl}pyridine-3-carboxylic acid]	< 100
O=C(O)c1cnc(C2(NC(=O)c3cnn4c3CN(C(=O)c3cc5ccccc5[nH]3)CC4)CC2)nc1 [Example 20, 2-{1-[5-(1H-indole-2-carbonyl)-4H,5H,6H,7H-pyrazolo[1,5-a]pyrazine-3-amido]cyclopropyl}pyrimidine-5-carboxylic acid]	< 5
O=C(O)c1cnc(C2(NC(=O)c3cnn4c3CN(C(=O)c3cc5ccccc5[nH]3)CC4)CC2)nc1 [Example 29, 2-{1-[5-(1H-indole-2-carbonyl)-4H,5H,6H,7H-pyrazolo[1,5-a]pyrazine-3-amido]cyclopropyl}pyrimidine-5-carboxylic acid]	< 100
O=C(O)c1cccc(C2(NC(=O)c3cnn4c3CN(C(=O)c3cc5ccccc5[nH]3)CC4)CC2)c1 [Example 32, 3-{1-[5-(1H-indole-2-carbonyl)-4H,5H,6H,7H-pyrazolo[1,5-a]pyrazine-3-amido]cyclopropyl}benzoic acid]	< 5
CN(C(=O)c1cnn2c1CN(C(=O)c1cc3ccccc3[nH]1)CC2)C1(c2nccc(C(=O)O)n2)CC1 [Example 36, 2-{1-[N-methyl-5-(1H-indole-2-carbonyl)-4H,5H,6H,7H-pyrazolo[1,5-a]pyrazine-3-amido]cyclopropyl}pyrimidine-4-carboxylic acid]	< 5
CN(C(=O)c1[nH]nc2c1CN(C(=O)c1cc3ccccc3[nH]1)CC2)C1(c2ccc(C(=O)O)cc2)CC1 [Example 44, 4-{1-[N-methyl-5-(1H-indole-2-carbonyl)-2H,4H,5H,6H,7H-pyrazolo[4,3-c]pyridine-3-amido]cyclopropyl}benzoic acid]	< 5
CN(C(=O)c1[nH]nc2c1CN(C(=O)c1cc3ccccc3[nH]1)CC2)C1(c2ncc(C(=O)O)cn2)CC1 [Example 56, 2-{1-[N-methyl-5-(1H-indole-2-carbonyl)-2H,4H,5H,6H,7H-pyrazolo[4,3-c]pyridine-3-amido]cyclopropyl}pyrimidine-5-carboxylic acid]	5 to 10
CN(C(=O)c1cnn2c1CN(C(=O)c1cc3c(F)c(F)ccc3[nH]1)CC2)C1(c2ncc(C(=O)O)cn2)CC1 [Example 58, 2-{1-[N-methyl-5-(4,5-difluoro-1H-indole-2-carbonyl)-4H,5H,6H,7H-pyrazolo[1,5-a]pyrazine-3-amido]cyclopropyl}pyrimidine-5-carboxylic acid]	< 5
Cc1c(F)ccc2[nH]c(C(=O)N3CCn4ncc(C(=O)N(C)C5(c6ncc(C(=O)O)cn6)CC5)c4C3)cc12 [Example 59, 2-{1-[N-methyl-5-(5-fluoro-4-methyl-1H-indole-2-carbonyl)-4H,5H,6H,7H-pyrazolo[1,5-a]pyrazine-3-amido]cyclopropyl}pyrimidine-5-carboxylic acid]	< 5
CN(C(=O)c1[nH]nc2c1CN(C(=O)c1cc3c(F)c(F)ccc3[nH]1)CC2)C1(c2ccc(C(=O)O)cc2)CC1 [Example 65, 4-{1-[N-methyl-5-(4,5-difluoro-1H-indole-2-carbonyl)-2H,4H,5H,6H,7H-pyrazolo[4,3-c]pyridine-3-amido]cyclopropyl}benzoic acid]	< 5
Cc1c(F)ccc2[nH]c(C(=O)N3CCc4n[nH]c(C(=O)N(C)C5(c6ccc(C(=O)O)cc6)CC5)c4C3)cc12 [Example 66, 4-{1-[N-methyl-5-(5-fluoro-4-methyl-1H-indole-2-carbonyl)-2H,4H,5H,6H,7H-pyrazolo[4,3-c]pyridine-3-amido]cyclopropyl}benzoic acid]	< 5
Cc1cc(F)cc2[nH]c(C(=O)N3CCc4n[nH]c(C(=O)N(C)C5(c6ccc(C(=O)O)cc6)CC5)c4C3)cc12 [Example 67, 4-{1-[N-methyl-5-(6-fluoro-4-methyl-1H-indole-2-carbonyl)-2H,4H,5H,6H,7H-pyrazolo[4,3-c]pyridine-3-amido]cyclopropyl}benzoic acid]	< 5
